Results: patent US10578612B2, “Diagnostic assay” (priority 2010, dated 2020)
Values joined by “and” are separate entries in the source; they are usually repeats but may differ in a detail not shown here. Identical values can stand only once. Bridge positions count the residues as written; N and C are the ends. Square brackets hold non-standard residues; d marks the D form. Peptide text beside a SMILES is read from it. * marks the point of attachment. Octanoyl(6-Me) = CCC(C)CCCCC(=O)*; Dab = NCC[CH](N)C(=O)O

Assays:
Type in all cases: cell-based, human
[1] = test system: non-specific IFN-γ production in blood from BD heparin tube (endotoxin contamination); experiment: Polymyxin B in endotoxin-contaminated BD heparin tubes, IFN-γ assay (Example 4)
Procedure: Blood was taken from four healthy donors collected in Li-Heparin tubes. […] Tubes were mixed to resolublize the heparin and to ensure blood contact with tube plastic.
Aliquots of 1.0 mL from each heparin tube type were then transferred to 13/75 mm plain gel tubes. The blood was then incubated at 37° C. for 20 hours before the tubes were centrifuged and the IFN-γ concentration of the plasma determined by ELISA.

[2] = test system: IFN-γ production in blood (CMV antigen); experiment: Effect of polymyxin B on IFN-γ production in blood in QuantiFERON-CMV tubes (Example 2)
Procedure: The effect of polymyxin B on IFN-γ production was assessed. Blood from 8 healthy donors was added to QuantiFERON-CMV blood collection tubes (1.0 mL per tube). One tube for each donor had 1.0 μg/mL of polymyxin B added, whilst the second tube served as a control. Blood was incubated at 37° C. for 20 hours before the tubes were centrifuged and the resultant concentration of IFN-γ determined by ELISA.

[3] = test system: non-specific IFN-γ production in blood containing lipopolysaccharides (LPS); experiment: Effect of polymyxin B on non-specific IFN-γ production in blood containing LPS (Example 3)
Procedure: In this Example, blood from 8 healthy donors was collected in Li-Heparin tubes. Aliquots of 1.0 mL were prepared in 13/75 mm plain gel tubes. An endotoxin, lipopolysaccharides (LPS), was added to each tube of blood at a concentration of 1 μg/mL. Various concentrations of polymyxin B were added to each of the tubes. The blood was then incubated at 37° C. for 20 hours before the tubes were centrifuged and the IFN-γ concentration of the plasma determined by ELISA.

[4] = test system: immune response to lipopolysaccharide (LPS), IFN-γ in blood; experiment: Effect of sushi peptide on immune response of blood to LPS (Example 6, FIGS. 1-2); details: sushi peptide 0-10 μg/ml, antigens CMV and tetanus toxoid, FIGS. 2a-2c
Procedure: Heparinized blood samples were collected into Li-Hep Vacuette (registered trade mark) tubes (Greiner Bio-one, Germany).
Aliquots of 1 ml of the blood samples were incubated with various concentrations of Lipopolysaccharide (Sigma, Australia) and a sushi peptide ([…]) [SEQ ID NO:1] (American Peptide Company, California) in nil blood collection tubes (QuantiFERON [registered trade mark]-TB Gold In-Tube, Cellestis Ltd, Australia) either as supplied or spiked with tetanus toxoid (1001 fu/ml), or in CMV tubes (QuantiFERON-CMV, Cellestis Ltd, Australia).
Stimulated blood samples were incubated for 16-24 hr at 37° C., after which the tubes were centrifuged and the plasma harvested. The amount of IFN-γ present in each plasma sample was then quantified using the QuantiFERON (registered trade mark)-TB Gold ELISA (Cellestis Limited, Australia) as per the manufacturer's instructions.
ELISA optical density values for IFN-γ standards run on each ELISA plate were used to construct a standard curve from which the amount of IFN-γ present in each of the test plasma samples was converted to IU/mL values.

[5] = test system: IFN-γ production in stimulated whole blood

## CCC(C)CCCCC(=O)NC(CCN)C(=O)NC(C(=O)NC(CCN)C(=O)NC1CCNC(=O)C(C(C)O)NC(=O)C(CCN)NC(=O)C(CCN)NC(=O)C(CC(C)C)NC(=O)C(Cc2ccccc2)NC(=O)C(CCN)NC1=O)C(C)O (stereo not drawn) [polymyxin B, N-[4-amino-1-[[1-[[4-amino-1-oxo-1-[[6,9,18-tris(2-aminoethyl)-15-benzyl-3-(1-hydroxyethyl)-12-(2-methylpropyl)-2,5,8,11,14,17,20-heptaoxo-1,4,7,10,13,16,19-heptazacyclotricos-21-yl]amino]butan-2-yl]amino]-3-hydroxy-1-oxobutan-2-yl]amino]-1-oxobutan-2-yl]-6-methyloctanamide] ({Octanoyl(6-Me)}-[Dab]T[Dab][Dab][Dab]FL[Dab][Dab]T; lactam 4-C; configuration not given here)
[1]; 100 ug/mL polymyxin B, BD heparin tubes known to contain endotoxin
  effect on non-specific IFN-γ production in BD heparin tubes: significantly reduced
[1]; blood from BD heparin tube (endotoxin contaminated) with 100 μg/mL polymyxin B, 37° C. 20 hours, one line per subject
  IFN-gamma, BD Heparin Tube + 100 μg/mL Polymyxin B: 0.51 IU/mL and 0.11 IU/mL (2×) and 0.24 IU/mL
[2]; 1 μg/mL polymyxin B, CMV antigen
  effect on the production of IFN-γ: does not adversely affect the production of IFN-γ
[2]; QuantiFERON-CMV tube, 1.0 μg/mL polymyxin B, 37° C. 20 hours, ELISA, one line per subject
  IFN-γ concentration, CMV + PMB 1.0 μg/mL: 8.35 IU/mL and 0.04 IU/mL (2×) and 0.08 IU/mL and 0.51 IU/mL and 1.53 IU/mL and 24.28 IU/mL and 0.05 IU/mL and 2.3 IU/mL and 0.55 IU/mL
[3]; blood + 1 μg/mL LPS, polymyxin B 0.1 ug/mL, 37° C. 20 hours, one line per subject
  IFN-γ concentration, 1 μg/mL LPS, polymyxin 0.1 ug/mL: 0.67 IU/mL and 0.44 IU/mL and 9.28 IU/mL and 2.87 IU/mL and 0.32 IU/mL and 2.00 IU/mL and 0.79 IU/mL and 0.41 IU/mL
[3]; blood + 1 μg/mL LPS, polymyxin B 1 ug/mL, 37° C. 20 hours, one line per subject
  IFN-γ concentration, 1 μg/mL LPS, polymyxin 1 ug/mL: 0.41 IU/mL and 0.22 IU/mL and 3.31 IU/mL and 2.57 IU/mL and 0.21 IU/mL and 1.17 IU/mL and 0.50 IU/mL and 0.14 IU/mL
[3]; blood + 1 μg/mL LPS, polymyxin B 10 ug/mL, 37° C. 20 hours, one line per subject
  IFN-γ concentration, 1 μg/mL LPS, polymyxin 10 ug/mL: 0.25 IU/mL and 0.11 IU/mL (2×) and 1.96 IU/mL and 1.41 IU/mL and 0.36 IU/mL and 0.32 IU/mL and 0.12 IU/mL
[3]; blood + 1 μg/mL LPS, polymyxin B 100 ug/mL, 37° C. 20 hours, one line per subject
  IFN-γ concentration, 1 μg/mL LPS, polymyxin 100 ug/mL: 0.02 IU/mL (3×) and 0.05 IU/mL (2×) and 0.04 IU/mL and 0.18 IU/mL and 0.06 IU/mL
[3]; samples containing endotoxin (LPS 1 μg/mL)
  effect on non-specific IFN-γ production: caused a reduction in non-specific IFN-γ production

## HAEHKVKIGVEQKYGQFPQGTEVTYTCSGNYFLM (Sushi peptide)
[4]
  effect on immune response to LPS: inhibition of an immune response to lipopolysaccharide (LPS)

## polyinosinic acid-polycytidylic acid [PolyI:C]
[5]
  IFN-γ response to poly(I:C) alone: relatively small
  effect on IFN-γ production with antigen: increases the IFN-γ production
